Data taken from ChEMBL document CHEMBL1130619, “Quaternary substituted PDE4 inhibitors I: the synthesis and in vitro evaluation of a novel series of oxindoles” (Bioorg Med Chem Lett, 1998).

What was measured:
[1] = biological target: T1, Phosphodiesterase 4 (Homo sapiens, UniProt P27815+Q08499+Q07343+Q08493); assay: Displacement of [3H]rolipram binding to guinea pig brain membrane; format: tissue-based, Cavia porcellus; conditions: target entry is the homologue from another species
[2] = biological target: T1, Phosphodiesterase 4; assay: Inhibition of guinea pig macrophage Phosphodiesterase 4; format: protein assay, Cavia porcellus; conditions: target entry is the homologue from another species

| Ki [1] [nM] | IC50 [2] [nM] | SMILES |
| --- | --- | --- |
| 200 | 600 | COc1ccc(C2(Cc3ccncc3)C(=O)Nc3ccccc32)cc1OC1CCCC1 (centres undefined) |
| > 3700 | 1000 | COc1ccc(C2(Cc3ccncc3)C(=O)N(Cc3ccncc3)c3ccccc32)cc1OC1CCCC1 (centres undefined) |
| 2800 | 700 | COc1ccc(C2(Cc3ccncc3)C(=O)N(C(=O)OC(C)(C)C)c3ccccc32)cc1OC1CCCC1 (centres undefined) |
| 2400 | 1700 | COc1ccc(C2(Cc3ccncc3)C(=O)N(C(=O)N(C)C)c3ccccc32)cc1OC1CCCC1 (centres undefined) |

The next lines start with the compound.

| SMILES | Ki [1] [nM] | IC50 [2] [nM] |
| --- | --- | --- |
| COc1ccc(C2(Cc3ccncc3)C(=O)N(Cc3ccccc3)c3ccccc32)cc1OC1CCCC1 (centres undefined) | > 3700 | 2000 |
| COc1ccc(C2(Cc3ccncc3)C(=O)N(S(=O)(=O)c3ccc(C)cc3)c3ccccc32)cc1OC1CCCC1 (centres undefined) | > 3700 | 2400 |
| COc1ccc(C2(Cc3cccnc3)C(=O)Nc3ccccc32)cc1OC1CCCC1 (centres undefined) | 2600 | 400 |
| COc1ccc(C2(Cc3cc[n+]([O-])cc3)C(=O)Nc3ccccc32)cc1OC1CCCC1 (centres undefined) | > 3700 | 1200 |
| COc1ccc(C2(Cc3ccccn3)C(=O)Nc3ccccc32)cc1OC1CCCC1 (centres undefined) | > 3700 | 700 |
| COc1ccc(C2C(=O)Nc3ccccc32)cc1OC1CCCC1 (centres undefined) | > 3700 | 6000 |
| COc1ccc(C2(Cc3ccccc3)C(=O)Nc3ccccc32)cc1OC1CCCC1 (centres undefined) | > 3700 | 1000 |
| COc1ccc([C@H](Cc2ccncc2)c2ccccc2)cc1OC1CCCC1 [CDP840] | 60 | 4.5 |
